According to patent publication US12017976B1, “1-(4-carbonoimidoylphenoxy)-3-{4-[(e)-(phenylimino)methyl]phenoxy }propan-2-ol as an eco-friendly insecticidal agent against Spodoptera littoralis (boisd.)” (KING FAISAL UNIVERSITY, priority 2024, dated 2024):
In brackets after ≈: the same amount, converted by molar mass.

Tests used:
aquatic insects = settings: highly toxic / very highly toxic classification; cited from earlier work
[1] = tested on: Spodoptera littoralis larvae (2nd and 4th instar); experiment: Insecticidal leaf dip bioassay on larvae of the laboratory strain of cotton leafworm
Procedure: Five concentrations (200, 100, 50, 25, 12.5 ppm) were designed for this synthetic compound and the reference fenoxycarb's compound as the dynamic ingredients based on ppm via diluting the commercial formulation.
In this experiment, the synthetic compound was tested for its insecticidal bioactivity using the industry-standard leaf dip bioassay techniques. […] Until usage, the stocks were kept in a refrigerator. The target substance test results were noted & the concentrations needed to destroy 50% (LC50) of S. littoralis larvae were calculated. The target compound was employed in five different concentrations, & 0.1% Tween 80 was employed as a surfactant. Castor bean leaf discs (nine centimeters in diameter) were dipped in the concentration under test for ten seconds, then fed to 2th & 4th larvae, which were roughly the same size and housed in glass jars (five pound). Each action carried out 3 times with ten larvae each. The mortality equalized via Abbott's formula. […] The mortality results of larval insect were estimated through employing probit analysis through a statistics (LDP-line) equation which estimate the LC50 values with 95% fiducially limits of lower, upper confidence limit and slope.

Row | Structure (SMILES) | LC50 for aquatic insects (aquatic insects) | Toxicity index %, 2nd instar larvae ([1]; 2nd instar larvae, 72 hours, fenoxycarb's LC50 / compound's LC50) | Toxicity index %, 4th instar larvae ([1]; 4th instar larvae, 72 hours, fenoxycarb's LC50 / compound's LC50) | LC50 ([1]; Spodoptera littoralis, in Gossypium hirsutum, foliar, read-out: LC50 against Spodoptera littoralis)
1 | CCc1ccc(C(=O)NN(C(=O)c2cc(C)cc(C)c2)C(C)(C)C)cc1 [tebufenozide] | 100 to 1000 µg/mL | – | – | –
2 | CCOC(=O)NCCOc1ccc(Oc2ccccc2)cc1 [fenoxycarb] | – | 100% | 100% | 5.94 µg/mL (≈ 19.7 µM)
